Experiment [1] relates to NO production by RAW264.7 cells. Briefly: Inhibitory activity on NO production in LPS/interferon-γ stimulated RAW264.7 cells. Particulars: LPS 5 ng/ml + interferon-γ 1 U/ml, overnight, nitrite in culture supernatant. It counts as cell-based, mouse. The procedure:
Using mouse macrophage cell line, RAW264.7 as iNOS inducible cells, percent inhibition of NO production by the test compound was measured. The test compound was dissolved in N,N-dimethylformamide to 10 mM and diluted with RPMI-1640 medium to 0.1 mM. Furthermore, it was prepared with a medium to make a final concentration from 10 μM to 10 nM by diluting 10-fold, and added to the culture. The day before the experiment, the cells were prepared with RPMI-1640 medium supplemented with heat-inactivated 10% fetal calf serum to a concentration of 5×10^5 cells/ml and plated to a 96-well plate by 1×10^5 cells/0.2 ml per well. After culturing at 37° C. under 5% CO2/95% air overnight, the medium was changed to RPMI-1640 medium supplemented with heat-inactivated 1% fetal calf serum. Thereto was added the prepared test compound, and LPS and interferon-γ were added to a final concentrations of 5 ng/ml and 1 U/ml, respectively. After incubation overnight, the concentration of nitrite ion (stable metabolite of NO) in the culture supernatant was measured and used as an index of NO production. The nitrite concentration was quantitatively measured by adding 20 μg/ml 2,3-diaminonaphtalene (DAN) by 25 μl to the culture supernatant (50 μl), incubating at room temperature for 10 min, adding 0.5N NaOH (25 μl) and measuring the fluorescence at 450 nm (excitation wavelength 365 nm).

Experiment [2] relates to TNF-α production by human monocyte cell line P31/FUJ. The experiment can be described thus: Inhibitory activity on TNF-α production in P31/FUJ cells. It counts as cell-based. Particulars: PMA pretreated, LPS 100 ng/ml + interferon-γ 10 U/ml, overnight. The procedure:
(§1) Using human monocyte cell line P31/FUJ (JCRB0091, establisher: Fujioka, obtained from the Human Science Research Resource Bank), the percent inhibition of cytokine production by the test compound was measured. The test compound was dissolved in N,N-dimethylformamide to 10 mM and diluted with RPMI-1640 medium to 0.1 mM. Furthermore, it was prepared with a medium to make a final concentration from 10 μM to 10 nM by diluting 10-fold, and added to the culture. The day before the experiment, the cells were prepared with RPMI-1640 medium supplemented with 10% fetal calf serum to a concentration of 2×10^6 cells/ml and plated to a 96-well plate by 2×10^5 cells/0.1 ml per well. The above-mentioned medium (0.1 ml) supplemented with 40 nM phorbol 12-myristate 13-acetate (PMA) was added and the mixture was cultured at 37° C. under 5% CO2/95% air overnight. The cells were washed with the above-mentioned medium to remove PMA and the prepared test compound was added, and LPS and interferon-γ were added to a final concentrations of 100 ng/ml and 10 U/ml, respectively. After culturing overnight, the concentration of TNF-α and IL-1β in the culture supernatant was measured. For quantitative determination of each cytokine, a quantitative determination kit by Amersham was used.

In experiment [3] the test system is IL-1β production by human monocyte cell line P31/FUJ. The experiment can be described thus: Inhibitory activity on IL-1β production in P31/FUJ cells. Type of experiment: cell-based. Particulars: PMA pretreated, LPS 100 ng/ml + interferon-γ 10 U/ml, overnight. The procedure:
as §1

In a further experiment the test system is blood NOx concentration. Briefly: Effect against increase in blood nitrogen oxide concentration in LPS-treated mice. It counts as in vivo, mouse. Particulars: female BALB/c mice, 10 mg/kg orally 1 h before LPS 10 mg/kg i.p., sera at 6 h after LPS, relative to control group. An excerpt:
When a biological defense response against infection and the like, immunopathy and the like causes NO production in the body, it is quickly metabolized into nitrous acid and nitric acid, whereby blood nitrogen oxide concentration (NOx) increases. Using test animals, the effect of the test compound against increase in blood NOx concentration was examined.
Female BALB/c mice (7-week-old) were divided into 6–8 mice per group. For the test compound group, the test compound was suspended in 0.5% aqueous methylcellulose solution and 10 mg/kg thereof was orally administered. For the control group, a solvent was similarly administered. One hour later, LPS (10 mg/kg) was intraperitoneally administered to the test compound group and the control group. At 6 h after LPS administration, blood was drawn and nitrate ion+nitrite ion concentration in sera was measured. The nitrate ion was converted to nitrous acid ion with nitrate reductase and quantitatively measured as a total nitrite ion concentration by fluorescence method using the aforementioned DAN.

Where [4] appears, read: Mus musculus, RAW264.7, RAW264.7 cells.

Each structure is given as a SMILES string.

One may read the IC50 as the midpoint of a concentration-inhibition curve.

As to `CCOC(=O)C1=CCCCC1S(=O)(=O)Cc1ccccc1` (stereo not shown) [Compound 1, ethyl 6-(benzylsulfonyl)-1-cyclohexene-1-carboxylate], the IC50 in experiment [1] (setting [4]) stood at 240 nM.
Same read-out and setting: under `CCOC(=O)C1=CCCCC1S(=O)(=O)Cc1ccc(OC)cc1` (stereo not shown) [Compound 2, ethyl 6-[(4-methoxybenzyl)sulfonyl]-1-cyclohexene-1-carboxylate] stands 3200 nM.
Same read-out and setting: the same measure for `CCOC(=O)C1=CCCCC1S(=O)(=O)Cc1ccc(F)cc1F` (stereo not shown) [Compound 3, ethyl 6-[(2,4-difluorobenzyl)sulfonyl]-1-cyclohexene-1-carboxylate]: 47 nM.
With `CCOC(=O)C1=CCCCC1S(=O)(=O)Cc1ccc(F)cc1Cl` (stereo not shown) [Compound 4, ethyl 6-[(2-chloro-4-fluorobenzyl)-sulfonyl]-1-cyclohexene-1-carboxylate], the IC50 was found to be 200 nM in experiment [2] (Homo sapiens, P31-FUJ); 580 nM in experiment [3]; 29 nM in experiment [1] (RAW264.7 cells). Further, the “Blood NOx inhibition (%)” value in the experiment on blood NOx concentration was 62%.
For the molecule `CCOC(=O)C1=CCCCC1S(=O)(=O)Cc1ccc(F)cc1Cl` (stereo not drawn) [Compound 5, ethyl (−)-6-[(2-chloro-4-fluorobenzyl)sulfonyl]-1-cyclohexene-1-carboxylate], the IC50 in experiment [1] (RAW264.7 cells) was determined as 1000 nM.
Turning to `CCOC(=O)C1=CCCCC1S(=O)(=O)Cc1ccc(F)cc1Cl` (stereo not drawn) [Compound 6, ethyl (+)-6-[(2-chloro-4-fluorobenzyl)sulfonyl]-1-cyclohexene-1-carboxylate], the values for the concentration for half-maximal inhibition (IC50) in experiment [2], in experiment [3] and in experiment [1] (RAW264.7 cells) were 150 nM, 230 nM and 9.3 nM, respectively.
As for `CCOC(=O)C1=CCOCC1S(=O)(=O)Nc1ccc(F)cc1F` (stereo not shown) [Compound 7, ethyl 3-[(2,4-difluorophenyl)-sulfamoyl]-3,6-dihydro-2H-pyran-4-carboxylate], the IC50 in experiment [1] (setting [4]) is 18 nM.
Turning to `CCOC(=O)C1=CCOCC1S(=O)(=O)Nc1ccc(F)cc1Cl` (stereo not shown) [Compound 8, ethyl 3-[(2-chloro-4-fluorophenyl)sulfamoyl]-3,6-dihydro-2H-pyran-4-carboxylate], the IC50 came out at 20 nM in experiment [2] (Homo sapiens, P31-FUJ); 11 nM in experiment [3] (Homo sapiens, P31-FUJ); 3.1 nM in experiment [1] (setting [4]). In the experiment with blood NOx concentration, the “Blood NOx inhibition (%)” value is on record as 80%.
